According to patent US20240287108A1, “nSMASE2 INHIBITOR PRODRUGS WITH ENHANCED ORAL AND BRAIN EXPOSURES” (The Johns Hopkins University, priority 2021, published 2024):

Columns and labels:
[1] = time-dependent oral pharmacokinetics in mice; format: in vivo, mouse
Description: As described earlier, we identified P1 and P18 as the most promising candidates for time dependent PK.
(§1) All PK studies in mice were conducted according to protocols approved by the Animal Care and Use Committee at Johns Hopkins University. Male CD-1 mice between 25 and 30 g were obtained from Harlan and maintained on a 12 h light-dark cycle with ad libitum access to food and water. […] All of the formulations were freshly prepared prior to the dosing. The mice were sacrificed at specified time points (either 2 h or 0.25, 0.5, 1, 2, 4, 6, and 8 h) post drug administration. For the collection of plasma and brain tissue, animals were euthanized with CO2, and blood samples were collected in heparinized microtubes by cardiac puncture. Brains were dissected and immediately flash frozen (−80° C.) Blood samples were spun at 2000 g for 15 min, and plasma was removed and stored at −80° C. until LC-MS/MS analysis. Prior to extraction, frozen samples were thawed on ice.
Brain tissues were diluted 1:5 w/v with acetonitrile containing losartan (0.5 μm) and homogenized, followed by vortex-mixing and centrifugation at 10,000 g for 10 min at 4° C. A 50 μL aliquot of the supernatant were diluted with 50 uL of water and transferred to 250 μL polypropylene autosampler vials sealed with teflon caps. Then, 2 μL of the sample were injected into the LC/MS/MS system for analysis. Chromatographic analysis was performed using an Accela ultra-high-performance system consisting of an analytical pump and an autosampler coupled with a TSQ Vantage mass spectrometer. […] The mobile phase consisted of 0.1% formic acid in acetonitrile and 0.1% formic acid in water with gradient elution were used. […] Plasma concentrations (nmol/ml) as well as brain tissue concentrations (nmol/g) were determined and plots of mean plasma concentration versus time were constructed. Non-compartmental analysis modules in Phoenix WinNonlin version 7.0 (Certara USA, Inc., Princeton, NJ) were used to quantify exposures (AUC0-t).

[2] = single time-point (2 h) oral pharmacokinetic screening in mice; format: in vivo, mouse; conditions: single time point PK, oral 10 mg/kg DPTIP equivalent
Description: as §1
Brain tissues were diluted 1:5 w/v with acetonitrile containing losartan (0.5 μm) and homogenized, followed by vortex-mixing and centrifugation at 10,000 g for 10 min at 4° C. […] Plasma concentrations (nmol/ml) as well as brain tissue concentrations (nmol/g) were determined and plots of mean plasma concentration versus time were constructed. Non-compartmental analysis modules in Phoenix WinNonlin version 7.0 (Certara USA, Inc., Princeton, NJ) were used to quantify exposures (AUC0-t).

[3] = in vitro stability in CES1−/− mouse liver homogenates; format: in vitro ADME; conditions: CES1−/− mouse liver homogenate, 10 μM, 37° C.
Description: All synthesized prodrugs were next screened for in vitro stability in carboxylesterase 1 knockout (CES1^−/−) mouse plasma, as well as CES1^−/− mouse brain and liver homogenates (Table 2-1). We have previously reported that CES1^−/− mouse model recapitulates human prodrug metabolism.
For the tissue homogenates, washed tissues were diluted 10-fold in 0.1 M potassium phosphate buffer and homogenized using a probe sonicator. To evaluate the stability of the intact prodrug over time, each of the crude homogenates and plasma were aliquoted to 1 mL and then spiked with a final assay concentration of 10 μM of each prodrug followed by incubation in an orbital shaker at 37° C. for 1 h (in triplicate). Sample from each incubation at predetermined time points (0 min, and 1 h) was quenched with three volumes of acetonitrile containing the internal standard (IS; losartan: 0.5 μm). Samples were vortex-mixed for 30 secs and centrifuged at 10,000×g for 10 min at 4° C. Disappearance of intact prodrugs from these samples were performed on a Dionex ultra-high-performance LC system coupled with Q Exactive Focus orbitrap mass spectrometer (Thermo Fisher Scientific Inc., Waltham MA). […] The mobile phase consisted of 0.1% formic acid in water and 0.1% formic acid in acetonitrile. Pumps were operated at a flow rate of 0.4 mL/min for 9 min using gradient elution. The mass spectrometer controlled by Xcalibur software 4.0.27.13 (Thermo Scientific) was operated with a heated electrospray ionization (HESI) ion source in positive ionization mode. Quantification of the prodrugs were performed in the full-scan mode (from m/z 50 to 1600) by comparing t=0 samples with t=60 min samples.

SMILES: CCC1CC(N2CCCCC2)CC(CC)N1C(=O)Oc1c(OC)cc(-c2nc(-c3ccccc3)c(-c3cccs3)[nH]2)cc1OC (stereo not shown) [Compound P18, 2,6-Dimethoxy-4-(5-phenyl-4-(thiophen-2-yl)-1H-imidazol-2-yl)phenyl 2′,6′-diethyl-[1,4′-bipiperidine]-1′-carboxylate]
- plasma exposure of the intact compound (AUC0-t) ([1]; oral 10 mg/kg DPTIP equivalent): 0.969 µM·h
- conversion of prodrug to DPTIP in vivo ([1]; oral 10 mg/kg DPTIP equivalent (P18: in the brain)): > 50%
- improvement of brain and plasma levels of DPTIP and/or its brain penetration index compared with DPTIP [2]: highest improvement
- Stability in mouse (% remaining at 1h) Mean + Std Error, Liver [3]: 100 ± 3%
